Reference: patent publication US11518739B2, “Sulfonamide carboxamide compounds” (Inflazome Limited, priority 2017, dated 2022)

How the values were obtained:
NLRP3 [1] = target: T1, NLRP3 (Homo sapiens, UniProt Q96P20); assay: THP-1 cells pyroptosis assay (LPS-primed, nigericin-triggered, resazurin readout); type: cell-based; design: Seed THP-1 cells (25,000 cells/well) containing 1.0 μg/ml LPS in 40 μl of RPMI medium; host or cells: THP-1 cells, LPS-primed, nigericin-triggered; conditions: NLRP3 inhibitory activity in THP-1 cells, 1.0 μg/ml LPS, 5 μM nigericin
T1 sequence (Q96P20 whole entry): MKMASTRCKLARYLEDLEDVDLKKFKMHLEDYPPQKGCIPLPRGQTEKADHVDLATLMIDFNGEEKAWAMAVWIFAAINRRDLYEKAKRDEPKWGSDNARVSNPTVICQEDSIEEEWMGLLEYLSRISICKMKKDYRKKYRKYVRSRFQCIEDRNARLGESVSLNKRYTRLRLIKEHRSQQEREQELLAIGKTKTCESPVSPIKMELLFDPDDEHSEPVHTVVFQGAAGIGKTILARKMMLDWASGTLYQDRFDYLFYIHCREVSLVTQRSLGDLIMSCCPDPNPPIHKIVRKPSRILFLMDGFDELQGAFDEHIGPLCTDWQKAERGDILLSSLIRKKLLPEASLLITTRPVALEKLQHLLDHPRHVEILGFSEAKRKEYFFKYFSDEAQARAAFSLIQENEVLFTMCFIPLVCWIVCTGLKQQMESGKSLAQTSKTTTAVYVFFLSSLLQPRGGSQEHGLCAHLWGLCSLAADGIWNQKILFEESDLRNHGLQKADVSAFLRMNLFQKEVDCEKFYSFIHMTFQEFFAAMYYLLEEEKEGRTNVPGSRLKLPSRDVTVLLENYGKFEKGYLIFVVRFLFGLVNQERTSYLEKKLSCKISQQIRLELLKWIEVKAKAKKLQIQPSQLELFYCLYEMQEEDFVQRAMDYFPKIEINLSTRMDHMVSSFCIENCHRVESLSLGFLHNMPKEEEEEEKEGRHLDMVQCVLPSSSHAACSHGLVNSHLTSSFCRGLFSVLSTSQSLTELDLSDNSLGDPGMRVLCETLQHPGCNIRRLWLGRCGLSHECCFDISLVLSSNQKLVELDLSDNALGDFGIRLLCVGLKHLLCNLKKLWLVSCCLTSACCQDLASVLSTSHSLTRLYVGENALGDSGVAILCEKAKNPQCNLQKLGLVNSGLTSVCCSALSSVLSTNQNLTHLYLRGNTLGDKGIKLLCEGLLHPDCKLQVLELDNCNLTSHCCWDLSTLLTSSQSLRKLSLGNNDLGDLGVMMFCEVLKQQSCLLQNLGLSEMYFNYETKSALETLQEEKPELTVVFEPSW
Method: THP-1 cells (ATCC #TIB-202) were grown in RPMI containing L-glutamine (Gibco #11835) supplemented with ImM sodium pyruvate (Sigma #S8636) and penicillin (100 units/ml)/streptomycin (0.1 mg/ml) (Sigma #P4333) in 10% Fetal Bovine Serum (FBS) (Sigma #F0804). The cells were routinely passaged and grown to confluency ([…]). On the day of the experiment, THP-1 cells were harvested and resuspended into RPMI medium (without FBS). The cells were then counted and viability (>90%) checked by Trypan blue (Sigma #T8154). Appropriate dilutions were made to give a concentration of 625,000 cells/ml. To this diluted cell solution was added LPS (Sigma #L4524) to give a 1 μg/ml Final Assay Concentration (FAC). […] of the final preparation was aliquoted into each well of a 96-well plate. The plate thus prepared was used for compound screening.
The following method step-by-step assay was followed for compound screening. • 1. Seed THP-1 cells (25,000 cells/well) containing 1.0 μg/ml LPS in 40 μl of RPMI medium (without FBS) in 96-well, black walled, clear bottom cell culture plates coated with poly-D-lysine (VWR #734-0317) • 2. Add 5 μl compound (8 points half-log dilution, with 10 μM top dose) or vehicle (DMSO 0.1% FAC) to the appropriate wells • 3. Incubate for 3 hrs at 37° C. in 5% CO2 • 4. Add 5 μl nigericin (Sigma #N7143) (FAC 5 μM) to all wells • 5. Incubate for 1 hr at 37° C. and 5% CO2 • 6. At the end of the incubation period, spin plates at 300×g for 3 mins and remove supernatant • 7. Then add 50 μl of resazurin (Sigma #R7017) (FAC 100 μM resazurin in RPMI medium without FBS) and incubate plates for a further 1-2 hrs at 37° C. and 5% CO2 • 8. Plates were read in an Envision reader at Ex 560 nm and Em 590 nm • 9. IC50 data is fitted to a non-linear regression equation (log inhibitor vs response-variable slope 4-parameters)

NLRP3 [2] = target: T1, NLRP3; assay: Human whole blood IL-1β release assay (LPS + nigericin, AlphaLisa); type: cell-based; design: Plate out 80 μl of whole blood containing 1 μg/ml of LPS in 96-well, clear bottom cell culture plate; from tissue; host or cells: human whole blood from healthy donors (Li-heparin); conditions: NLRP3 inhibitory activity in human whole blood, 1 μg/ml LPS, 10 μM nigericin, read-out: HWB IC50
Method: For systemic delivery, the ability to inhibit NLRP3 when the compounds are present within the bloodstream is of great importance. For this reason, the NLRP3 inhibitory activity of a number of compounds in human whole blood was investigated in accordance with the following protocol.
Human whole blood in Li-heparin tubes was obtained from healthy donors from a volunteer donor panel. • 1. Plate out 80 μl of whole blood containing 1 μg/ml of LPS in 96-well, clear bottom cell culture plate (Corning #3585) • 2. Add 10 μl compound (8 points half-log dilution with 10 μM top dose) or vehicle (DMSO 0.1% FAC) to the appropriate wells • 3. Incubate for 3 hrs at 37° C., 5% CO2 • 4. Add 10 μl nigericin (Sigma #N7143) (10 μM FAC) to all wells • 5. Incubate for 1 hr at 37° C., 5% CO2 • 6. At the end of the incubation period, spin plates at 300×g for 5 mins to pellet cells and remove 20 μl of supernatant and add to 96-well v-bottom plates for IL-1β analysis (note: these plates containing the supernatants can be stored at −80° C. to be analysed at a later date) • 7. IL-1β was measured according to the manufacturer protocol (Perkin Elmer-AlphaLisa IL-1 Kit AL220F-5000) • 8. IC50 data is fitted to a non-linear regression equation (log inhibitor vs response-variable slope 4-parameters)

## O=C(Nc1c2c(cc3c1CCC3)CCC2)NS(=O)(=O)CCc1ccccc1 [Example 40, N-((1,2,3,5,6,7-Hexahydro-s-indacen-4-yl)carbamoyl)-2-phenylethanesulfonamide]
NLRP3 [1]
  IC50: ≤ 1 µM
NLRP3 [2]
  IC50: > 10 µM
